Laboratory results reported in ChEMBL document CHEMBL2074159, “Role of organic cation transporters in the renal secretion of nucleosides” (Biochem Pharmacol, 2000).

T1: Solute carrier family 22 member 1 (Rattus norvegicus, UniProt Q63089)
T1 sequence (Q63089 whole entry): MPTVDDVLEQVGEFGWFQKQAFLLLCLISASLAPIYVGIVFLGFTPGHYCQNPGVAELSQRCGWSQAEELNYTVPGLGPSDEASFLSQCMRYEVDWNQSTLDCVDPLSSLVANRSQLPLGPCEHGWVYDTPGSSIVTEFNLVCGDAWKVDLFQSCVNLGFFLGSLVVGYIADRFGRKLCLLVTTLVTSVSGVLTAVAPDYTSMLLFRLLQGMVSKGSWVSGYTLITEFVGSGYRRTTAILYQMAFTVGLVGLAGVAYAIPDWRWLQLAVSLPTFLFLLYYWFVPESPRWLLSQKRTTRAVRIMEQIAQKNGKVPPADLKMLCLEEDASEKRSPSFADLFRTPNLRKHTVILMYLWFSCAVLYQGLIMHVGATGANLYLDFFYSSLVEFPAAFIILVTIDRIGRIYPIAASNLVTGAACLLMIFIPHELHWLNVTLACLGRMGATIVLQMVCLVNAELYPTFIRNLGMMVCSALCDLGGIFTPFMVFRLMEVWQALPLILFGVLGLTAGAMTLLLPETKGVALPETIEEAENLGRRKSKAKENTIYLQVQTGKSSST

T2: Solute carrier family 22 member 2 (Rattus norvegicus, UniProt Q9R0W2)
T2 sequence (Q9R0W2 whole entry): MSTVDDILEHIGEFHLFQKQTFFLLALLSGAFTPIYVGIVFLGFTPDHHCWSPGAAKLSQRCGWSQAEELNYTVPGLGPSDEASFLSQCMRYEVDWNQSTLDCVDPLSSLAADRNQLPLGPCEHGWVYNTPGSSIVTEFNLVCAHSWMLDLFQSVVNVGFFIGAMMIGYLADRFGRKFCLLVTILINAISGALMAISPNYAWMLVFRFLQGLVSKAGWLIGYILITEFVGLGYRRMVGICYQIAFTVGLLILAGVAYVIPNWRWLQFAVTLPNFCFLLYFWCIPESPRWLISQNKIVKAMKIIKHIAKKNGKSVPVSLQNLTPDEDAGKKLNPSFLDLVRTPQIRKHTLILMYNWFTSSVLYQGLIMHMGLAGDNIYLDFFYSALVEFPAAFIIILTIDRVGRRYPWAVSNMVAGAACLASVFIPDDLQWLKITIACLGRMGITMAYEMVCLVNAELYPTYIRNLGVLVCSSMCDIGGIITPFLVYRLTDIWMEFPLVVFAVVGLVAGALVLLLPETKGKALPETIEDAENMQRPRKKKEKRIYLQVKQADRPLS


Experiments:
[1] = target: T1, Solute carrier family 22 member 1; assay: TP_TRANSPORTER: inhibition of TEA uptake in Xenopus laevis oocytes; format: functional, cell-based, Oocyte
[2] = target: T1, Solute carrier family 22 member 1; assay: (§1) TP_TRANSPORTER: uptake in Xenopus laevis oocytes; format: functional, cell-based; conditions: oocyte
[3] = target: T2, Solute carrier family 22 member 2; assay: as §1; format: functional, cell-based; conditions: oocyte
[4] = target: T1, Solute carrier family 22 member 1; assay: TP_TRANSPORTER: inhibition of dTub uptake in Xenopus laevis oocytes
[5] = substrate: CC[N+](CC)(CC)CC; assay: cells, lysate or membranes named

Molecule | Activity [2] | Activity [3] | further results
Nc1ncnc2c1ccn2[C@H]1C[C@H](O)[C@@H](CO)O1 [2'-Deoxytubercidin] |  |  | Ki [1]: 19 µM
Nc1nc(Cl)nc2c1ncn2[C@H]1C[C@H](O)[C@@H](CO)O1 [CLADRIBINE] | substrate [+] | is not a substrate [-] | 
Nc1ccn([C@@H]2O[C@H](CO)[C@@H](O)[C@@H]2O)c(=O)n1 [CYTARABINE] | substrate [+] | is not a substrate [-] | 
CC[N+](CC)(CC)CC [TETRYLAMMONIUM] |  |  | Ki [4]: 286 µM
Cc1cn([C@H]2C[C@H](N=[N+]=[N-])[C@@H](CO)O2)c(=O)[nH]c1=O [ZIDOVUDINE] | substrate [+] | is not a substrate [-] | 
Solute carrier family 22 member 1 (Rattus norvegicus) (protein) MPTVDDVLEQVGEFGWFQKQAFLLLCLISASLAPIYVGIVFLGFTPGHYCQNPGVAELSQRCGWSQAEELNYTVPGLGPSDEASFLSQCMRYEVDWNQSTLDCVDPLSSLVANRSQLPLGPCEHGWVYDTPGSSIVTEFNLVCGDAWKVDLFQSCVNLGFFLGSLVVGYIADRFGRKLCLLVTTLVTSVSGVLTAVAPDYTSMLLFRLLQGMVSKGSWVSGYTLITEFVGSGYRRTTAILYQMAFTVGLVGLAGVAYAIPDWRWLQLAVSLPTFLFLLYYWFVPESPRWLLSQKRTTRAVRIMEQIAQKNGKVPPADLKMLCLEEDASEKRSPSFADLFRTPNLRKHTVILMYLWFSCAVLYQGLIMHVGATGANLYLDFFYSSLVEFPAAFIILVTIDRIGRIYPIAASNLVTGAACLLMIFIPHELHWLNVTLACLGRMGATIVLQMVCLVNAELYPTFIRNLGMMVCSALCDLGGIFTPFMVFRLMEVWQALPLILFGVLGLTAGAMTLLLPETKGVALPETIEEAENLGRRKSKAKENTIYLQVQTGKSSST |  |  | Km [5]: 251 µM
